Data as given in patent US20220241276A1, “COMPOSITIONS AND METHODS FOR TREATING CANCER” (The Regents of the University of Michigan, priority 2019, published 2022).
Values joined by “and” are separate entries in the source; they are usually repeats but may differ in a detail not shown here. Equal values may be shown once. Read-outs that look alike come from different tables or passages of the source.

Key:
[1] = test system: advanced adrenocortical carcinoma (ACC); conditions: cited from earlier work
[2] = test system: advanced adrenocortical carcinoma (ACC); test: Phase 3 study (GALACCTIC; Fassnacht et al. Lancet Oncology 2015) of OSI-906/linsitinib vs placebo in patients with advanced adrenocortical carcinoma; format: in vivo, human; conditions: prior trial, 6/90 patients, unselected
Source text: In some embodiments, the agent is an IGF1R inhibitor.
This includes 4 patients who achieved a partial response (PR) by RECIST criteria (Eisenhauer et al. Eur J. Cancer. 2009), and 2 patients who achieved long-term stable disease (SD; also by RECIST criteria, Eisenhauer et al. Eur J. Cancer. 2009).

[3] = test system: adrenocortical carcinoma (ACC); conditions: cited from earlier work
[4] = individual patients G-L, non-responders to OSI-906, per patient

Compound | Patients with favorable response / treated patients ([1]; OSI-906-treated arm, unselected advanced ACC) | Kaplan-Meier progression-free survival curves, linsitinib-treated vs placebo-treated ([1]; all patients of the trial) | Progression-free survival (days) ([1]; individual patients A-F, responders to OSI-906, per patient, '+' given after value) | Best change from baseline in sum of target lesions (%) ([1]; individual patients A-F, responders to OSI-906, per patient) | Best change from baseline in sum of target lesions (%) [1, 4] | Progression-free survival [1, 4] | Number of patients who achieved a partial response (PR) ([1]; of 90 OSI-906-treated patients, RECIST) [patients] | Drug toxicities ([1]; patients with ACC) | Primary endpoint of the Phase 3 study ([1]; patients with ACC) | Progression-free survival of long-term durable responders ([1]; small subset of linsitinib-treated patients, not seen with placebo) [days] | Response rate [2] [%] | Patients who recur during adjuvant therapy after surgery or progress during therapy for non-resectable disease ([3]; mitotane therapy) | Efficacy ([3]; recent studies) | Toxicity ([3]; recent studies)
C[C@]1(O)C[C@@H](c2nc(-c3ccc4ccc(-c5ccccc5)nc4c3)c3c(N)nccn32)C1 [OSI-906, linsitinib] | 6/90 | no statistical difference | 169+ days and 504+ days and 525+ days and 205+ days and 433+ days and 440+ days | −50% and −45.625% and −45% and −5.882% and 0% and −78.46% | 32.26% and 35.29% and 38.28% and 48.35% and 23.51% | 38 days and 41 days and 42 days (3×) and 48 days | 4 | limited and manageable | failed to reach the primary endpoint | > 150 | 6.7 | – | – | –
Clc1ccc(C(c2ccccc2Cl)C(Cl)Cl)cc1 (centres unmarked) [mitotane] | – | – | – | – | – | – | – | – | – | – | – | up to 90% | only marginally effective | highly toxic
